Results taken from ChEMBL document CHEMBL4052655, “Synthesis, spectroscopic characterization and biological evaluation of unsymmetrical aminosquarylium cyanine dyes” (Bioorg Med Chem, 2017).
The source made the active and inactive calls. The calls are words filed in the database; no cut-off is given here.

How the values were obtained:
[1] = Dark toxicity against human Caco2 cells pretreated for 24 hrs followed by 14 mins dark incubation measured after 1 hr by Alamar blue assay; assay type: cell-based; settings: Caco-2 cells
[2] = Induction of singlet oxygen production in chloroform
[3] = Dark toxicity against human HepG2 cells assessed as cell viability at 10 uM pretreated for 24 hrs followed by 14 mins dark incubation measured after 1 to 24 hrs by Alamar blue assay relative to control; assay type: cell-based; settings: read-out: Activity
[4] = test system: Caco-2; test: Dark toxicity against human Caco2 cells assessed as reduction in cell viability at 10 uM pretreated for 24 hrs followed by 14 mins dark incubation measured after 1 to 24 hrs by Alamar blue assay; assay type: cell-based; settings: caco-2, 10 µM
[5] = test system: Caco-2; test: Dark toxicity against human Caco2 cells assessed as reduction in cell viability at 1 uM pretreated for 24 hrs followed by 14 mins dark incubation measured after 1 to 24 hrs by Alamar blue assay; assay type: cell-based; settings: caco-2, 1 µM
[6] = test system: HepG2; test: Dark toxicity against human HepG2 cells assessed as reduction in cell viability at 1 uM pretreated for 24 hrs followed by 14 mins dark incubation measured after 1 to 24 hrs by Alamar blue assay; assay type: cell-based; settings: hepg2, 1 µM
[7] = Dark toxicity against human Caco2 cells pretreated for 24 hrs followed by 14 mins dark incubation measured after 24 hrs by Alamar blue assay; assay type: cell-based; settings: Caco-2 cells
[8] = test system: Caco-2; test: Phototoxicity against human Caco2 cells pretreated for 24 hrs followed by 1.81 J irradiation for 7 mins measured after 1 hr by Alamar blue assay; assay type: functional, cell-based; settings: Caco-2, light or radiation study
[9] = test system: Caco-2; test: Phototoxicity against human Caco2 cells pretreated for 24 hrs followed by 1.81 J irradiation for 7 mins measured after 24 hrs by Alamar blue assay; assay type: functional, cell-based; settings: Caco-2, light or radiation study
[10] = test system: HepG2; test: Phototoxicity against human HepG2 cells assessed as cell viability at 5 uM pretreated for 24 hrs followed by 3.61 J irradiation for 14 mins measured after 24 hrs by Alamar blue assay relative to control; assay type: functional; settings: HepG2, light or radiation study, read-out: Activity
[11] = Dark toxicity against human HepG2 cells pretreated for 24 hrs followed by 14 mins dark incubation measured after 1 hr by Alamar blue assay; assay type: cell-based
[12] = Dark toxicity against human HepG2 cells pretreated for 24 hrs followed by 14 mins dark incubation measured after 24 hrs by Alamar blue assay; assay type: cell-based
[13] = test system: HepG2; test: Phototoxicity against human HepG2 cells pretreated for 24 hrs followed by 1.81 J irradiation for 7 mins measured after 1 hr by Alamar blue assay; assay type: functional, cell-based; settings: HepG2, light or radiation study
[14] = test system: HepG2; test: Phototoxicity against human HepG2 cells pretreated for 24 hrs followed by 1.81 J irradiation for 7 mins measured after 24 hrs by Alamar blue assay; assay type: functional, cell-based; settings: HepG2, light or radiation study
[15] = test system: Caco-2; test: Phototoxicity against human Caco2 cells pretreated for 24 hrs followed by 3.61 J irradiation for 14 mins measured after 1 hr by Alamar blue assay; assay type: functional, cell-based; settings: Caco-2, light or radiation study
[16] = test system: Caco-2; test: Phototoxicity against human Caco2 cells pretreated for 24 hrs followed by 3.61 J irradiation for 14 mins measured after 24 hrs by Alamar blue assay; assay type: functional, cell-based; settings: Caco-2, light or radiation study
[17] = test system: HepG2; test: Phototoxicity against human HepG2 cells pretreated for 24 hrs followed by 3.61 J irradiation for 14 mins measured after 1 hr by Alamar blue assay; assay type: functional, cell-based; settings: HepG2, light or radiation study
[18] = test system: HepG2; test: Phototoxicity against human HepG2 cells pretreated for 24 hrs followed by 3.61 J irradiation for 14 mins measured after 24 hrs by Alamar blue assay; assay type: functional, cell-based; settings: HepG2, light or radiation study
[19] = test system: Caco-2; test: Phototoxicity against human Caco2 cells at 5 to 10 uM pretreated for 24 hrs followed by 1.81 J irradiation for 7 mins measured after 24 hrs by Alamar blue assay; assay type: functional, cell-based
[20] = test system: Caco-2; test: Phototoxicity against human Caco2 cells at 5 to 10 uM pretreated for 24 hrs followed by 3.61 J irradiation for 14 mins measured after 24 hrs by Alamar blue assay; assay type: functional, cell-based
[21] = test system: HepG2; test: Phototoxicity against human HepG2 cells assessed as reduction in cell viability up to 10 uM pretreated for 24 hrs followed by 1.81 J irradiation for 7 mins measured after 1 hr by Alamar blue assay; assay type: functional, cell-based
[22] = test system: HepG2; test: Phototoxicity against human HepG2 cells assessed as reduction in cell viability at 5 uM pretreated for 24 hrs followed by 3.61 J irradiation for 14 mins measured after 24 hrs by Alamar blue assay; assay type: functional, cell-based
[23] = test system: Caco-2; test: Phototoxicity against human Caco2 cells assessed as reduction in cell viability at 1 uM pretreated for 24 hrs followed by 3.61 J irradiation for 14 mins measured after 24 hrs by Alamar blue assay; assay type: functional, cell-based
[24] = Dark toxicity against human Caco2 cells assessed as cell viability at 5 to 10 uM pretreated for 24 hrs followed by 14 mins dark incubation measured after 1 to 24 hrs by Alamar blue assay relative to control; assay type: cell-based; settings: Caco-2 cells, read-out: Activity
[25] = Dark toxicity against human HepG2 cells assessed as cell viability at 5 to 10 uM pretreated for 24 hrs followed by 14 mins dark incubation measured after 1 to 24 hrs by Alamar blue assay relative to control; assay type: cell-based; settings: read-out: Activity
[26] = Dark toxicity against human HepG2 cells assessed as cell viability at 1 uM pretreated for 24 hrs followed by 14 mins dark incubation after 48 hrs by Alamar blue assay relative to control; assay type: cell-based; settings: read-out: Activity
[27] = Dark toxicity against human Caco2 cells assessed as cell viability at 0.1 to 1 uM pretreated for 24 hrs followed by 14 mins dark incubation after 1 to 24 hrs by Alamar blue assay relative to control; assay type: cell-based; settings: Caco-2 cells, read-out: Activity
[28] = test system: Caco-2; test: Phototoxicity against human Caco2 cells assessed as cell viability at 5 uM pretreated for 24 hrs followed by 1.81 J irradiation for 7 mins measured after 24 hrs by Alamar blue assay (reference value: 60%); assay type: functional; settings: Caco-2, light or radiation study, read-out: Activity
[29] = test system: Caco-2; test: Phototoxicity against human Caco2 cells assessed as cell viability at 5 uM pretreated for 24 hrs followed by 3.61 J irradiation for 14 mins measured after 24 hrs by Alamar blue assay (reference value: 60%); assay type: functional; settings: Caco-2, light or radiation study, read-out: Activity
[30] = test system: Caco-2; test: Ratio of IC50 for human Caco2 cells pretreated for 24 hrs followed by 14 mins dark incubation to IC50 for human Caco2 cells pretreated for 24 hrs followed by 3.61 J irradiation for 14 mins
[31] = test system: Caco-2; test: Phototoxicity against human Caco2 cells assessed as reduction in cell viability at 1 uM pretreated for 24 hrs followed by 1.81 J irradiation for 7 mins measured after 1 to 24 hrs by Alamar blue assay; assay type: functional, cell-based
[32] = test system: HepG2; test: Phototoxicity against human HepG2 cells assessed as reduction in cell viability at 1 uM pretreated for 24 hrs followed by 3.61 J irradiation for 14 mins measured after 1 hr by Alamar blue assay; assay type: functional, cell-based
[33] = test system: HepG2; test: Phototoxicity against human HepG2 cells assessed as reduction in cell viability at 1 uM pretreated for 24 hrs followed by 1.81 J irradiation for 7 mins measured after 24 hrs by Alamar blue assay; assay type: functional, cell-based
[34] = test system: HepG2; test: Phototoxicity against human HepG2 cells assessed as reduction in cell viability at 1 uM pretreated for 24 hrs followed by 3.61 J irradiation for 14 mins measured after 24 hrs by Alamar blue assay; assay type: functional, cell-based
[35] = test system: Caco-2; test: Phototoxicity against human Caco2 cells assessed as cell viability at 1 uM pretreated for 24 hrs followed by 3.61 J irradiation for 14 mins measured after 24 hrs by Alamar blue assay (reference value: 80%); assay type: functional; settings: Caco-2, light or radiation study, read-out: Activity
[36] = test system: HepG2; test: Phototoxicity against human HepG2 cells assessed as reduction in cell viability at 1 uM pretreated for 24 hrs followed by 1.81 J irradiation for 7 mins measured after 1 hr by Alamar blue assay; assay type: functional, cell-based
[37] = Dark toxicity against human Caco2 cells assessed as cell viability at 1 uM pretreated for 24 hrs followed by 14 mins dark incubation after 1 to 24 hrs by Alamar blue assay relative to control; assay type: cell-based; settings: Caco-2 cells, read-out: Activity

Row | Structure (SMILES) | IC50 at 1 h [1] [µM] | Activity [2] | IC50 at 24 h [7] [nM] | IC50 [8] [µM] | IC50 [9] [nM] | IC50 at 1 h [11] [nM] | IC50 at 24 h [12] [nM] | IC50 [13] [µM] | IC50 [14] [nM] | IC50 [15] [nM] | IC50 [16] [nM] | IC50 [17] [nM] | IC50 [18] [nM] | viability at up to 10 µM [24] [%] | viability at 24 h, 10 µM [25] [%] | viability at 48 h, 1 µM [26] [%] | Activity [31] | Activity [32] | Activity [33] | Activity [34] | further results
1 | CCCCCCN1/C(=C/C2=C([O-])C(=C\c3ccc4ccccc4[n+]3CCCCCC)/C2=O)Sc2ccccc21 | > 10 | Active | 5800 | > 10 | 5380 | 9100 | 7840 | 8.53 | 8240 | > 10000 | 5080 | 8950 | 5060 | – | – | – | – | – | – | – | viability at 24 h, 10 µM [3]: 15%; Activity [4]: Non-Toxic; Activity [5]: Non-Toxic; Activity [6]: Non-Toxic; viability at 5 µM [10]: 50%; Activity [19]: Active; Activity [20]: Active; Activity [21]: inactive; Activity [22]: Active
2 | CCCCCCN1/C(=C/C2=C(NC)C(=C\c3ccc4ccccc4[n+]3CCCCCC)/C2=O)Sc2ccccc21.[I-] | 5.11 | Active | 1270 | 3.9 | 1160 | 2930 | 1360 | 3.39 | 1020 | 1460 | 470 | 930 | 830 | 0 | 0 | 70 | Active | Active | Active | Active | Activity [23]: Active; viability at up to 1 µM [27]: 70%; viability at 5 µM [28]: 0%; viability at 5 µM [29]: 0%; Ratio IC50 [30]: 3.6
3 | CCCCCCN1/C(=C/C2=C(N)C(=C\c3ccc4ccccc4[n+]3CCCCCC)/C2=O)Sc2ccccc21 | 1.72 | Active | 1650 | 1.24 | 1390 | 1710 | 1400 | 0.75 | 940 | 950 | 690 | 860 | 650 | 0 | 0 | 20 | Active | Active | Active | Active | viability at 1 µM [35]: 0%; Activity [36]: Active; viability at 24 h, 1 µM [37]: 20%
